According to patent publication US20110053773A1, “METHODS OF IMPROVING NUTRITIONAL VALUE OF PLANTS” (UNIVERSITY OF TENNESSEE RESEARCH FOUNDATION, priority 2009, published 2011):

What was measured:
[1] = system: kale 'Red Russian'; experiment: Content analysis of kale: protein, amino acids, fiber, fatty acids, minerals (Example 4, Tables 12-14); format: in vivo; details: 28 DA-A
Experimental: (§1) Greenhouse and laboratory studies were conducted to ascertain the tolerance and nutritional quality differences following postemergence applications of the insecticide chlorpyrifos, the fungicide chlorothalonil, the PGRs mepiquat-chloride and paclobutrazol, and the safeners napthalic anhydride and isoxadifen-ethyl on kale ‘Red Russian’ and basil ‘Genovese’. Visual injury was rated based on general phytotoxicity, chlorosis, and visual stunting and each measurement was based on a percent scale from 0 to 100 where 0 equals no visual response and 100 equals complete plant death. Kale and basil were both harvested approximately 4 weeks after treatments and plants were pooled over replicates for content analysis of crude protein, crude amino acid content, acid detergent fiber, neutral detergent fiber, total fatty acids, and/or key mineral content (including Na, Ca, P, Mg, K, Fe, Mn, Zn, and Cu). In addition, the amounts of key individual amino acids (aspartic acid, threonine, glutamic acid, proline, glycine, cysteine, valine, leucine, isoleucine, methionine, and lysine) and composite classifications of fatty acid (saturated fatty acids, monounsaturated fatty acids, polyunsaturated fatty acids) were also analyzed from these sub-samples for kale (Tables 10-14).

[2] = system: basil ‘Genovese’; experiment: Yield, fresh weight of basil after insecticide, fungicide, PGRs and safeners (Example 4, Table 10); format: in vivo; details: DA-A, check 31.8
Summary of the method: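 Plants received postemergence sprays of one insecticide, one fungicide, two PGRs or two safeners in the greenhouse. About 4 weeks later they were harvested, and replicates were pooled for laboratory content analysis. Injury was rated visually on a 0–100% scale.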

[3] = system: kale 'Red Russian'; experiment: Visual injury of kale after insecticide, fungicide, PGRs, safeners (Example 4)
Experimental: as §1

[4] = system: basil 'Genovese'; experiment: Visual injury of basil after insecticide, fungicide, PGRs, safeners (Example 4)
Summary of the method: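 Postemergence greenhouse applications of chlorpyrifos, chlorothalonil, mepiquat-chloride, paclobutrazol, napthalic anhydride or isoxadifen-ethyl. Injury rated visually for phytotoxicity, chlorosis and stunting on a 0–100% scale (0 = no response, 100 = plant death). Plants harvested ~4 weeks after treatment, pooled over replicates for nutrient content analysis.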

[5] = system: kale ‘Red Russian’; experiment: Yield, fresh weight of kale after insecticide, fungicide and PGRs (Example 4, Table 12); format: in vivo; details: 28 DA-A, Untreated Check 106.9
Experimental: as §1

[6] = rates g ai/ha: chlropyrifos 3370, chlorothalonil 7900, paclobutrazol 9.7, mepiquat-chloride 37, + NIS 0.25 % v/v
[7] = second-listed rate g ai/ha: chlropyrifos ###, chlorothalonil ###, paclobutrazol 9.7, mepiquat-chloride 37, + NIS 0.3 % v/v
[8] = 7 DA-A, rates g ai/ha: chlropyrifos 1120, chlorothalonil 2630, paclobutrazol 3.23, mepiquat-chloride 12.3, + NIS 0.25 % v/v
[9] = 7 DA-A, rates g ai/ha: chlropyrifos 3370, chlorothalonil 7900, paclobutrazol 9.7, mepiquat-chloride 37, + NIS 0.25 % v/v
[10] = 14 DA-A, rates g ai/ha: chlropyrifos 1120, chlorothalonil 2630, paclobutrazol 3.23, mepiquat-chloride 12.3, + NIS 0.25 % v/v
[11] = 14 DA-A, rates g ai/ha: chlropyrifos 3370, chlorothalonil 7900, paclobutrazol 9.7, mepiquat-chloride 37, + NIS 0.25 % v/v
[12] = 28 DA-A, rates g ai/ha: chlropyrifos 1120, chlorothalonil 2630, paclobutrazol 3.23, mepiquat-chloride 12.3, + NIS 0.25 % v/v
[13] = 28 DA-A, rates g ai/ha: chlropyrifos 3370, chlorothalonil 7900, paclobutrazol 9.7, mepiquat-chloride 37, + NIS 0.25 % v/v
[14] = 7 DA-A, rates g ai/ha: chlropyrifos 1120, chlorothalonil 2630, paclobutrazol 3.23, mepiquat-chloride 12.3, Isoxadifen 8, Napthalic anhydride 264, + NIS 0.25 % v/v
[15] = 7 DA-A, rates g ai/ha: chlropyrifos 3370, chlorothalonil 7900, paclobutrazol 9.7, mepiquat-chloride 37, Isoxadifen 16, Napthalic anhydride 527, + NIS 0.25 % v/v
[16] = 14 DA-A, rates g ai/ha: chlropyrifos 1120, chlorothalonil 2630, paclobutrazol 3.23, mepiquat-chloride 12.3, Isoxadifen 8, Napthalic anhydride 264, + NIS 0.25 % v/v
[17] = 14 DA-A, rates g ai/ha: chlropyrifos 3370, chlorothalonil 7900, paclobutrazol 9.7, mepiquat-chloride 37, Isoxadifen 16, Napthalic anhydride 527, + NIS 0.25 % v/v
[18] = 28 DA-A, rates g ai/ha: chlropyrifos 1120, chlorothalonil 2630, paclobutrazol 3.23, mepiquat-chloride 12.3, Isoxadifen 8, Napthalic anhydride 264, + NIS 0.25 % v/v
[19] = 28 DA-A, rates g ai/ha: chlropyrifos 3370, chlorothalonil 7900, paclobutrazol 9.7, mepiquat-chloride 37, Isoxadifen 16, Napthalic anhydride 527, + NIS 0.25 % v/v

## CC(C)(C)[C@@H](O)[C@@H](Cc1ccc(Cl)cc1)n1cncn1 (racemic) [paclobutrazol]
[1]; [6]
  Phosphorous, Percent Increase Over the Untreated Check (on a % dry matter basis): 12 % check
  Potassium, Percent Increase Over the Untreated Check (on a % dry matter basis): 15 % check
  Sodium, Percent Increase Over the Untreated Check (on a % dry matter basis): 11 % check
  Zinc, Percent Increase Over the Untreated Check (on a % dry matter basis): 13 % check
[1]; [7]
  Alanine, Percent Increase over the Untreated Check (on a % dry matter basis): 4 % check
  Aspartic acid, Percent Increase over the Untreated Check (on a % dry matter basis): 12 % check
  Cysteine, Percent Increase over the Untreated Check (on a % dry matter basis): 6 % check
  Glutamic acid, Percent Increase over the Untreated Check (on a % dry matter basis): 16 % check
  Glycine, Percent Increase over the Untreated Check (on a % dry matter basis): 3 % check
  Iso-leucine, Percent Increase over the Untreated Check (on a % dry matter basis): 6 % check
  Leucine, Percent Increase over the Untreated Check (on a % dry matter basis): 5 % check
  Lysine, Percent Increase over the Untreated Check (on a % dry matter basis): 14 % check
  Methionine, Percent Increase over the Untreated Check (on a % dry matter basis): 2 % check
  Proline, Percent Increase over the Untreated Check (on a % dry matter basis): 7 % check
  Threonine, Percent Increase over the Untreated Check (on a % dry matter basis): 4 % check
  Total Amino acids, Percent Increase over the Untreated Check (on a % dry matter basis): 9 % check
  Total Protein, Percent Increase over the Untreated Check (on a % dry matter basis): 13 % check
  Valine, Percent Increase over the Untreated Check (on a % dry matter basis): 6 % check
[2]; rates g ai/ha: chlropyrifos 1120, chlorothalonil 2630, paclobutrazol 3.23, mepiquat-chloride 12.3, Isoxadifen 8, Napthalic anhydride 264, + NIS 0.25 % v/v
  Yield Fresh weight: 22.4 grams
[2]; rates g ai/ha: chlropyrifos 3370, chlorothalonil 7900, paclobutrazol 9.7, mepiquat-chloride 37, Isoxadifen 16, Napthalic anhydride 527, + NIS 0.25 % v/v
  Yield Fresh weight: 24.4 grams
[3]; [8]
  Phytotoxicity Chlorosis: 1%
  Phytotoxicity General: 10%
  Phytotoxicity Stunting: 6%
[3]; [9]
  Phytotoxicity Chlorosis: 0%
  Phytotoxicity General: 9%
  Phytotoxicity Stunting: 11%
[3]; [10]
  Phytotoxicity Chlorosis: 10%
  Phytotoxicity General: 3%
  Phytotoxicity Stunting: 19%
[3]; [11]
  Phytotoxicity Chlorosis: 16%
  Phytotoxicity General: 6%
  Phytotoxicity Stunting: 28%
[3]; [12]
  Phytotoxicity Chlorosis: 3%
  Phytotoxicity General: 3%
  Phytotoxicity Stunting: 21%
[3]; [13]
  Phytotoxicity Chlorosis: 0%
  Phytotoxicity General: 4%
  Phytotoxicity Stunting: 19%
[4]; [14]
  Phytotoxicity Chlorosis: 8%
  Phytotoxicity General: 3%
  Phytotoxicity Stunting: 3%
[4]; [15]
  Phytotoxicity Chlorosis: 5%
  Phytotoxicity General: 3%
  Phytotoxicity Stunting: 2%
[4]; [16]
  Phytotoxicity Chlorosis: 5%
  Phytotoxicity General: 0%
  Phytotoxicity Stunting: 7%
[4]; [17]
  Phytotoxicity Chlorosis: 7%
  Phytotoxicity General: 0%
  Phytotoxicity Stunting: 5%
[4]; [18]
  Phytotoxicity Chlorosis: 3%
  Phytotoxicity General: 5%
  Phytotoxicity Stunting: 8%
[4]; [19]
  Phytotoxicity Chlorosis: 7%
  Phytotoxicity General: 2%
  Phytotoxicity Stunting: 2%
[5]; rates g ai/ha: chlropyrifos 1120, chlorothalonil 2630, paclobutrazol 3.23, mepiquat-chloride 12.3, + NIS 0.25 % v/v
  Yield Fresh weight: 107.2 grams
[5]; [6]
  Yield Fresh weight: 108.3 grams
